{
  "source": "paper PMC4926143",
  "about": "(Toxins, 2016)",
  "key": {"aflatoxin production": {"tested_on": "aflatoxin production", "settings": "cited from earlier work"}, "[1]": {"molecular_target": "T1, bovine heart mitochondrial complex II (Bos taurus, UniProt P31039+P35720+Q3T189+Q95123)", "T1 construct": "bovine heart mitochondrial complex II; purchased Cayman Chemical; host or cells: bovine heart mitochondria (native tissue preparation supplied in the kit)", "T1 sequence (P31039 44-665)": "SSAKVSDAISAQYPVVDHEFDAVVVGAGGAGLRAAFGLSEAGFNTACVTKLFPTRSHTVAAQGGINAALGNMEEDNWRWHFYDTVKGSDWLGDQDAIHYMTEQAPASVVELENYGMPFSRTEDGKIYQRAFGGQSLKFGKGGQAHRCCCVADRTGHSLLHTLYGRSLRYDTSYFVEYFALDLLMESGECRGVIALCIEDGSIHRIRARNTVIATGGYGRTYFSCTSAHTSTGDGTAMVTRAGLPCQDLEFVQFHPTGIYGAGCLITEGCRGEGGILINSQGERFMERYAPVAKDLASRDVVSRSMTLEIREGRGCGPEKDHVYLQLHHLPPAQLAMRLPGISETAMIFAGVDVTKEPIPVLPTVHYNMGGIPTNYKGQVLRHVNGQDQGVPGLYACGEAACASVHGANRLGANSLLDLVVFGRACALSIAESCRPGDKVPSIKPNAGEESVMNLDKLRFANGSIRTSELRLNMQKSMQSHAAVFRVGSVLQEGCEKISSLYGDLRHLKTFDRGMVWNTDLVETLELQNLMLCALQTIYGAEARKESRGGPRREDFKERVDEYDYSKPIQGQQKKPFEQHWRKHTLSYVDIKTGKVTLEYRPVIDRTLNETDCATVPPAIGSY", "T1 sequence (Q3T189 29-280)": "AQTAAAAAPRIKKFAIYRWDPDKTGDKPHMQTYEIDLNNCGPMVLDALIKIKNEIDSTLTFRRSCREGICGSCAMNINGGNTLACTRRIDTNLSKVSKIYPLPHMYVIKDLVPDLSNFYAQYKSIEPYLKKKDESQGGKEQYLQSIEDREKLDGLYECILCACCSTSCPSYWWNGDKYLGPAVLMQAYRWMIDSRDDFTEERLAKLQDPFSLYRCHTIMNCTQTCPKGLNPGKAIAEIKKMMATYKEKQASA", "T1 sequence (P35720 30-169)": "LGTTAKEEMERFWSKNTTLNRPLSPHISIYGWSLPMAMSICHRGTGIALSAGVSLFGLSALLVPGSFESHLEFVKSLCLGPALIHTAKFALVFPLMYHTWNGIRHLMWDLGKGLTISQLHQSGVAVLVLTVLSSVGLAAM", "T1 sequence (Q95123 56-158)": "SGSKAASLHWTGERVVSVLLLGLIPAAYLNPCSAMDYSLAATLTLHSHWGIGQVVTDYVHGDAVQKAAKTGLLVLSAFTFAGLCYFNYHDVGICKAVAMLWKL", "experiment": "MitoCheck Complex II Activity Assay (succinate dehydrogenase activity)", "assay_type": "biochemical", "settings": "bovine heart mitochondria"}, "[2]": {"tested_on": "Aspergillus flavus IMF 47798", "assay_type": "cell-based"}, "aflR and pksA mRNA": {"tested_on": "aflR and pksA mRNA", "experiment": "RT-qPCR of aflR and pksA mRNA levels in A. flavus", "assay_type": "cell-based, Aspergillus flavus", "settings": "0.05 mM, normalized to β-tubulin mRNA", "experimental": "To test the effects of three octyl esters on the mRNA levels of aflR and pksA, A. flavus was cultured with octyl syringate (8), octyl paraben (12), or octyl gallate (14) at the concentrations of 0.05 mM. Subsequently, aflR and pksA mRNA levels were examined by quantitative PCR.\nThe lyophilized mycelia were ground under liquid nitrogen using a mortar and pestle. Total RNA was extracted with TRIzol reagent (Thermo Fisher Scientific, Waltham, MA, USA) and purified with the PureLink RNA Mini Kit (Thermo Fisher Scientific), according to manufacturer’s protocol. The cDNA was prepared with the ReverTra Ace qPCR RT Master Mix (TOYOBO, Osaka, Japan), according to manufacturer’s protocol. The cDNA derived from 0.05 μg of total RNA was used as a qPCR template. qPCR was carried out using FastStart Universal SYBR Green Master (Rox) (Roche, Basel, Switzerland) in a final volume of 25 μL for each reaction and an ABI 7300 Real-Time PCR System (Thermo Fisher Scientific). Two-step PCR conditions were as follows: after an initial incubation at 95 °C for 10 min, 40 cycles of 95 °C for 15 s and 60 °C for 1 min were performed. The amount of aflR and pksA mRNA were normalized to the amount of β-tubulin mRNA (control gene) in each sample. PCR primers used for each gene were as follows: β-tubulin 5′-[…]-3′ and 5′-[…]-3′; AflR 5′-[…]-3′ and 5′-[…]-3′; pksA 5′-[…]-3′ and 5′-[…]-3′."}, "[3]": {"tested_on": "Aspergillus flavus IMF 47798", "assay_type": "cell-based", "remark": "listed apart in the source"}, "A. flavus": {"tested_on": "A. flavus", "settings": "cited from earlier work"}, "A. flavus ATCC 9170": {"tested_on": "A. flavus ATCC 9170", "set-up": "method as in PMID 19232493", "settings": "cited from earlier work"}, "[4]": {"settings": "read-out: IC50, mitochondrial complex II"}},
  "note": "Entries after “also recorded” stand apart in the source; their conditions may differ. Like-named read-outs stand apart in the source and are kept apart here.",
  "data": [
    {"smiles": "COc1[nH]c(=O)c(C(=O)[C@@H](C)C[C@H](C)[C@@H](Cl)CCl)c(O)c1OC", "note": "[atpenin A5]", "values": [
      {"measurement": "inhibition of aflatoxin production by complex II inhibitors", "setting": "aflatoxin production", "value": "inhibited aflatoxin production with selectivity"}
    ]},
    {"smiles": "O=C(Nc1ccccc1-c1ccc(Cl)cc1)c1cccnc1Cl", "note": "[boscalid]", "values": [
      {"measurement": "IC50", "setting": "[1]; [4]", "value": 19, "unit": "µM"},
      {"measurement": "inhibition of aflatoxin production by complex II inhibitors", "setting": "aflatoxin production", "value": "inhibited aflatoxin production with selectivity"},
      {"measurement": "IC50", "setting": "aflatoxin production; read-out: IC50 of aflatoxin production inhibition", "value": "< 0.01", "unit": "µM"}
    ]},
    {"smiles": "CCOC(=O)c1cc(OC)c(O)c(OC)c1", "note": "[compound 2, Ethyl syringate]", "values": [
      {"measurement": "IC50", "setting": "[1]; highest concentration 20 mM, read-out: IC50, mitochondrial complex II (symbol)", "value": "> 20000", "unit": "µM"},
      {"measurement": "inhibition of aflatoxin production", "setting": "[2]", "value": "did not inhibit aflatoxin production"}
    ]},
    {"smiles": "CCCOC(=O)c1cc(OC)c(O)c(OC)c1", "note": "[compound 3, propyl syringate]", "values": [
      {"measurement": "IC50", "setting": "[1]; [4]", "value": "> 20000", "unit": "µM"},
      {"measurement": "inhibition of aflatoxin production", "setting": "[2]", "value": "did not inhibit aflatoxin production"}
    ]},
    {"smiles": "CCCCOC(=O)c1cc(OC)c(O)c(OC)c1", "note": "[compound 4, butyl syringate]", "values": [
      {"measurement": "IC50", "setting": "[1]; [4]", "value": 9700, "unit": "µM"},
      {"measurement": "inhibition of aflatoxin production", "setting": "[2]", "value": "strong inhibitory activity"}
    ]},
    {"smiles": "CCCCCOC(=O)c1cc(OC)c(O)c(OC)c1", "note": "[compound 5, pentyl syringate]", "values": [
      {"measurement": "IC50", "setting": "[1]; [4]", "value": 2800, "unit": "µM"},
      {"measurement": "inhibition of aflatoxin production", "setting": "[2]", "value": "inhibited aflatoxin production very strongly"}
    ]},
    {"smiles": "CCCCCCOC(=O)c1cc(OC)c(O)c(OC)c1", "note": "[compound 6, hexyl syringate]", "values": [
      {"measurement": "IC50", "setting": "[1]; [4]", "value": 1100, "unit": "µM"},
      {"measurement": "inhibition of aflatoxin production", "setting": "[2]", "value": "inhibited aflatoxin production very strongly"}
    ]},
    {"smiles": "CCCCCCCOC(=O)c1cc(OC)c(O)c(OC)c1", "note": "[compound 7, heptyl syringate]", "values": [
      {"measurement": "IC50", "setting": "[1]; [4]", "value": 1300, "unit": "µM"},
      {"measurement": "inhibition of aflatoxin production", "setting": "[2]", "value": "inhibited aflatoxin production very strongly"}
    ]},
    {"smiles": "CCCCCCCCOC(=O)c1cc(OC)c(O)c(OC)c1", "note": "[compound 8, Octyl syringate]", "values": [
      {"measurement": "IC50", "setting": "[1]; [4]", "value": 340, "unit": "µM"},
      {"measurement": "aflR mRNA level", "setting": "aflR and pksA mRNA", "value": "None of the three octyl esters affected"},
      {"measurement": "pksA mRNA level", "setting": "aflR and pksA mRNA", "value": "None of the three octyl esters affected"},
      {"measurement": "inhibition of aflatoxin production", "setting": "[2]", "value": "inhibited aflatoxin production very strongly"},
      {"measurement": "fungal mycelial weight after five and six days of cultivation", "setting": "[3]", "value": "without changing"}
    ]},
    {"smiles": "CCOC(=O)c1ccc(O)cc1", "note": "[compound 9, ethyl paraben]", "values": [
      {"measurement": "aflatoxin production inhibitory activity (comparison in words)", "setting": "[2]", "value": "weak"}
    ]},
    {"smiles": "CCCOC(=O)c1ccc(O)cc1", "note": "[compound 10, Propyl paraben]", "values": [
      {"measurement": "IC50", "setting": "[1]; [4]", "value": "> 20000", "unit": "µM"},
      {"measurement": "aflatoxin production inhibitory activity (comparison in words)", "setting": "[2]", "value": "more strongly than propyl syringate (3) and propyl gallate (15); also recorded: much weaker than that of heptyl paraben (11) and octyl paraben (12)"},
      {"measurement": "inhibition of aflatoxin production on a solid culture", "setting": "A. flavus", "value": "inhibit aflatoxin production"}
    ]},
    {"smiles": "CCCCCCCOC(=O)c1ccc(O)cc1", "note": "[compound 11, heptyl paraben]", "values": [
      {"measurement": "aflatoxin production inhibitory activity after five and six days of cultivation", "setting": "[2]", "value": "maintained"},
      {"measurement": "inhibition of aflatoxin production", "setting": "[2]", "value": "strong"},
      {"measurement": "effect on fungal growth", "setting": "[3]", "value": "did not affect fungal growth"}
    ]},
    {"smiles": "CCCCCCCCOC(=O)c1ccc(O)cc1", "note": "[compound 12, octyl paraben]", "values": [
      {"measurement": "IC50", "setting": "[1]; [4]", "value": 160, "unit": "µM"},
      {"measurement": "aflR mRNA level", "setting": "aflR and pksA mRNA", "value": "None of the three octyl esters affected"},
      {"measurement": "pksA mRNA level", "setting": "aflR and pksA mRNA", "value": "None of the three octyl esters affected"},
      {"measurement": "aflatoxin production inhibitory activity (comparison in words)", "setting": "[2]", "value": "strong"},
      {"measurement": "effect on fungal growth", "setting": "[3]", "value": "did not affect fungal growth"}
    ]},
    {"smiles": "CCCCCCCCOC(=O)c1cc(O)c(O)c(O)c1", "note": "[compound 14, Octyl gallate]", "values": [
      {"measurement": "IC50", "setting": "[1]; [4]", "value": 290, "unit": "µM"},
      {"measurement": "aflR mRNA level", "setting": "aflR and pksA mRNA", "value": "None of the three octyl esters affected"},
      {"measurement": "pksA mRNA level", "setting": "aflR and pksA mRNA", "value": "None of the three octyl esters affected"},
      {"measurement": "minimum inhibitory concentration (MIC)", "setting": "A. flavus ATCC 9170", "value": 63, "unit": "µM"},
      {"measurement": "aflatoxin production inhibitory activity after five and six days of cultivation", "setting": "[2]", "value": "maintained"},
      {"measurement": "inhibition of aflatoxin production", "setting": "[2]", "value": "as strongly as octyl syringate (8) and octyl paraben (12); also recorded: strongly inhibited"},
      {"measurement": "effect on fungal growth", "setting": "[3]", "value": "did not affect fungal growth"},
      {"measurement": "effect on mycelial weight", "setting": "[3]", "value": "reduced the mycelial weight"}
    ]},
    {"smiles": "Cc1ccccc1C(=O)Nc1cccc(OC(C)C)c1", "note": "[mepronil]", "values": [
      {"measurement": "inhibition of aflatoxin production by complex II inhibitors", "setting": "aflatoxin production", "value": "inhibited aflatoxin production with selectivity"}
    ]},
    {"smiles": "Cc1cc(O)c2c(c1)O[C@@]1(C)CC[C@H]3C(C)(C)CCC[C@]34CO[C@@H]2[C@H]41", "note": "[siccanin]", "values": [
      {"measurement": "inhibition of aflatoxin production by complex II inhibitors", "setting": "aflatoxin production", "value": "inhibited aflatoxin production with selectivity"}
    ]}
  ]
}
